# Measured values published in patent US10519152B2, “Compounds and their use in treating cancer” (AstraZeneca AB, priority 2017, dated 2019).
# Target: T1, Estrogen Receptor (ERα) in MCF-7 human ductal carcinoma breast cell line (Homo sapiens, UniProt P03372)
# T1 construct: endogenous in cells; host or cells: MCF-7
# T1 sequence (P03372 1-595): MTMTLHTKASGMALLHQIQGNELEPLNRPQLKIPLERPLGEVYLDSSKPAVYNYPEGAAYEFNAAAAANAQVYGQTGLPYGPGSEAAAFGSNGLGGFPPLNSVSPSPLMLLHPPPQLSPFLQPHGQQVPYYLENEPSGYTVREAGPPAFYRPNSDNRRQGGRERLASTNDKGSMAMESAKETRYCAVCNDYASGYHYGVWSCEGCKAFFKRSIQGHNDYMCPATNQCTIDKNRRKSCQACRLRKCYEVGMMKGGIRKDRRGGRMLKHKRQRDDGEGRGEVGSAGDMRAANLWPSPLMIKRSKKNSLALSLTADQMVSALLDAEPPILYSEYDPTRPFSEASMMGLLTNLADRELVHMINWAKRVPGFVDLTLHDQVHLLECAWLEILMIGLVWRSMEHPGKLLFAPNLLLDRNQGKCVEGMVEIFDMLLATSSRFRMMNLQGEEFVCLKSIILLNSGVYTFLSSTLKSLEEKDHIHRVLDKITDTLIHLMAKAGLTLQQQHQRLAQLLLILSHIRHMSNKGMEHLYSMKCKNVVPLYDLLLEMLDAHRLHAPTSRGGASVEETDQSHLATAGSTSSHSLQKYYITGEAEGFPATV
# Assay: MCF-7 ER degradation assay (cell based immuno-fluorescence)
# Details: MCF-7 cells; for ER degradation ≥ 90% at 0.3 μM: ER degradation by fulvestrant at 0.3 μM is defined as 100%; for DC50: 18-22 hours incubation, 50% reduction of ERα expression, single experiment or average of two or more, read-out: MCF-7 ER degradation IC50
# Outline: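 MCF-7 human ductal carcinoma breast cells were seeded at 3.75×10^4 cells per mL (40 μL per well) in 384 well plates with phenol red free DMEM containing 2 mM L-Glutamine and 5% (v/v) Charcoal/Dextran treated foetal calf serum. After overnight culture, compounds were acoustically dispensed, incubated 18-22 hours, then cells were formaldehyde-fixed and immunostained for ERα.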
SMILES,ER degradation ≥ 90% at 0.3 μM,DC50 [nM]
"Cc1ncsc1-c1ccc(CNC(=O)[C@@H]2C[C@@H](O)CN2C(=O)[C@@H](NC(=O)COCCOc2ccc(COc3cc(F)c([C@@H]4c5[nH]c6ccccc6c5C[C@@H](C)N4CC(C)(C)F)c(F)c3)cc2)C(C)(C)C)cc1 [Example 5, (2S,4R)-1-((S)-2-(2-(2-(4-((3,5-Difluoro-4-((1R,3R)-2-(2-fluoro-2-methylpropyl)-3-methyl-2,3,4,9-tetrahydro-1H-pyrido[3,4-b]indol-1-yl)phenoxy)methyl)phenoxy)ethoxy)acetamido)-3,3-dimethylbutanoyl)-4-hydroxy-N-(4-(4-methylthiazol-5-yl)benzyl)pyrrolidine-2-carboxamide]",•,2.6
"Cc1ncsc1-c1ccc(CNC(=O)[C@@H]2C[C@@H](O)CN2C(=O)[C@@H](NC(=O)COCCCCCCCOc2ccc([C@@H]3c4[nH]c5ccccc5c4C[C@@H](C)N3CC(F)F)nc2)C(C)(C)C)cc1 [Example 6, (2S,4R)-1-((S)-2-(2-((7-((6-((1S,3R)-2-(2,2-Difluoroethyl)-3-methyl-2,3,4,9-tetrahydro-1H-pyrido[3,4-b]indol-1-yl)pyridin-3-yl)oxy)heptyl)oxy)acetamido)-3,3-dimethylbutanoyl)-4-hydroxy-N-(4-(4-methylthiazol-5-yl)benzyl)pyrrolidine-2-carboxamide]",••,3.6
"Cc1ncsc1-c1ccc(CNC(=O)[C@@H]2C[C@@H](O)CN2C(=O)[C@@H](NC(=O)COCCCCCCCOc2cc(F)c([C@@H]3c4[nH]c5ccccc5c4C[C@@H](C)N3CC(C)(C)F)c(F)c2)C(C)(C)C)cc1 [Example 7, (2S,4R)-1-((S)-2-(2-((7-(3,5-Difluoro-4-((1R,3R)-2-(2-fluoro-2-methylpropyl)-3-methyl-2,3,4,9-tetrahydro-1H-pyrido[3,4-b]indol-1-yl)phenoxy)heptyl)oxy)acetamido)-3,3-dimethylbutanoyl)-4-hydroxy-N-(4-(4-methylthiazol-5-yl)benzyl)pyrrolidine-2-carboxamide]",••,1.6
"Cc1ncsc1-c1ccc(CNC(=O)[C@@H]2C[C@@H](O)CN2C(=O)[C@@H](NC(=O)COCCCCCCOc2ccc([C@@H]3c4[nH]c5ccccc5c4C[C@@H](C)N3CC(F)F)nc2)C(C)(C)C)cc1 [Example 8, (2S,4R)-1-((S)-2-(2-((6-((6-((1S,3R)-2-(2,2-Difluoroethyl)-3-methyl-2,3,4,9-tetrahydro-1H-pyrido[3,4-b]indol-1-yl)pyridin-3-yl)oxy)hexyl)oxy)acetamido)-3,3-dimethylbutanoyl)-4-hydroxy-N-(4-(4-methylthiazol-5-yl)benzyl)pyrrolidine-2-carboxamide]",••,9.4
"Cc1ncsc1-c1ccc(CNC(=O)[C@@H]2C[C@@H](O)CN2C(=O)[C@@H](NC(=O)COCCCCCOCCOc2cc(F)c([C@@H]3c4[nH]c5ccccc5c4C[C@@H](C)N3CC(C)(C)F)c(F)c2)C(C)(C)C)cc1 [Example 9, (2S,4R)-1-((S)-2-(2-((5-(2-(3,5-Difluoro-4-((1R,3R)-2-(2-fluoro-2-methylpropyl)-3-methyl-2,3,4,9-tetrahydro-1H-pyrido[3,4-b]indol-1-yl)phenoxy)ethoxy)pentyl)oxy)acetamido)-3,3-dimethylbutanoyl)-4-hydroxy-N-(4-(4-methylthiazol-5-yl)benzyl)pyrrolidine-2-carboxamide]",••,0.7
"Cc1ncsc1-c1ccc(CNC(=O)[C@@H]2C[C@@H](O)CN2C(=O)[C@@H](NC(=O)COCCCCCOCCOc2ccc([C@@H]3c4[nH]c5ccccc5c4C[C@@H](C)N3CC(F)F)nc2)C(C)(C)C)cc1 [Example 10, (2S,4R)-1-((S)-2-(2-((5-(2-((6-((1S,3R)-2-(2,2-Difluoroethyl)-3-methyl-2,3,4,9-tetrahydro-1H-pyrido[3,4-b]indol-1-yl)pyridin-3-yl)oxy)ethoxy)pentyl)oxy)acetamido)-3,3-dimethylbutanoyl)-4-hydroxy-N-(4-(4-methylthiazol-5-yl)benzyl)pyrrolidine-2-carboxamide]",••,12
"Cc1ncsc1-c1ccc(CNC(=O)[C@@H]2C[C@@H](O)CN2C(=O)[C@@H](NC(=O)CCCCCCCCCOc2cc(F)c([C@@H]3c4[nH]c5ccccc5c4C[C@@H](C)N3CC(C)(C)F)c(F)c2)C(C)(C)C)cc1 [Example 11, (2S,4R)-1-((S)-2-(10-(3,5-Difluoro-4-((1R,3R)-2-(2-fluoro-2-methylpropyl)-3-methyl-2,3,4,9-tetrahydro-1H-pyrido[3,4-b]indol-1-yl)phenoxy)decanamido)-3,3-dimethylbutanoyl)-4-hydroxy-N-(4-(4-methylthiazol-5-yl)benzyl)pyrrolidine-2-carboxamide]",••,3.2
"Cc1ncsc1-c1ccc(CNC(=O)[C@@H]2C[C@@H](O)CN2C(=O)[C@@H](NC(=O)COCCCCCCCCOc2cc(F)c([C@@H]3c4[nH]c5ccccc5c4C[C@@H](C)N3CC(C)(C)F)c(F)c2)C(C)(C)C)cc1 [Example 12, (2S,4R)-1-((S)-2-(2-((8-(3,5-Difluoro-4-((1R,3R)-2-(2-fluoro-2-methylpropyl)-3-methyl-2,3,4,9-tetrahydro-1H-pyrido[3,4-b]indol-1-yl)phenoxy)octyl)oxy)acetamido)-3,3-dimethylbutanoyl)-4-hydroxy-N-(4-(4-methylthiazol-5-yl)benzyl)pyrrolidine-2-carboxamide]",••,6.6
"Cc1ncsc1-c1ccc(CNC(=O)[C@@H]2C[C@@H](O)CN2C(=O)[C@@H](NC(=O)COCCCCCCCCOc2ccc([C@@H]3c4[nH]c5ccccc5c4C[C@@H](C)N3CC(F)F)nc2)C(C)(C)C)cc1 [Example 13, (2S,4R)-1-((S)-2-(2-((8-((6-((1S,3R)-2-(2,2-Difluoroethyl)-3-methyl-2,3,4,9-tetrahydro-1H-pyrido[3,4-b]indol-1-yl)pyridin-3-yl)oxy)octyl)oxy)acetamido)-3,3-dimethylbutanoyl)-4-hydroxy-N-(4-(4-methylthiazol-5-yl)benzyl)pyrrolidine-2-carboxamide]",•,3.7
"Cc1ncsc1-c1ccc(CNC(=O)[C@@H]2C[C@@H](O)CN2C(=O)[C@@H](NC(=O)COCCCCOc2cc(F)c([C@@H]3c4[nH]c5ccccc5c4C[C@@H](C)N3CC(C)(C)F)c(F)c2)C(C)(C)C)cc1 [Example 14, (2S,4R)-1-((S)-2-(2-(4-(3,5-Difluoro-4-((1R,3R)-2-(2-fluoro-2-methylpropyl)-3-methyl-2,3,4,9-tetrahydro-1H-pyrido[3,4-b]indol-1-yl)phenoxy)butoxy)acetamido)-3,3-dimethylbutanoyl)-4-hydroxy-N-(4-(4-methylthiazol-5-yl)benzyl)pyrrolidine-2-carboxamide]",•,1.4
"Cc1ncsc1-c1ccc(CNC(=O)[C@@H]2C[C@@H](O)CN2C(=O)[C@@H](NC(=O)CCCCCCCCOc2cc(F)c([C@@H]3c4[nH]c5ccccc5c4C[C@@H](C)N3CC(C)(C)F)c(F)c2)C(C)(C)C)cc1 [Example 15, (2S,4R)-1-((S)-2-(9-(3,5-Difluoro-4-((1R,3R)-2-(2-fluoro-2-methylpropyl)-3-methyl-2,3,4,9-tetrahydro-1H-pyrido[3,4-b]indol-1-yl)phenoxy)nonanamido)-3,3-dimethylbutanoyl)-4-hydroxy-N-(4-(4-methylthiazol-5-yl)benzyl)pyrrolidine-2-carboxamide]",•,3.9
